Patent US11389414B2, “Methods for treating atherosclerosis with gamma-ketoaldehyde scavengers” (Vanderbilt University, priority 2017, dated 2022)

Legend:
[1] = tested on: aortic endothelial cells; test: H2O2 induced apoptosis, Annexin V staining, endothelial cells; assay type: cell-based, mouse; settings: 250 μM H2O2, 24 h; compared to vehicle or 4-HOBA
Protocol: (§1) Cell Culture: Peritoneal macrophages were isolated from mice 72 hours post injection of 3% thioglycollate and maintained in DMEM plus 10% fetal bovine serum (FBS, Gibco) as previously described. Human aortic endothelial cells (HAECs) were obtained from Lonza and maintained in endothelial cell basal medium-2 plus 1% FBS and essential growth factors (Lonza).
(§2) In vitro Cellular Apoptosis and Analysis of Lesion Apoptosis and Efferocytosis: Cell apoptosis was induced as indicated and detected by fluorescent labeled Annexin V staining and quantitated by either Flow Cytometry (BD 5 LSRII) or counting Annexin V positive cells in images captured under a fluorescent microscope. The apoptotic cells in atherosclerotic lesion were measured by TUNEL staining of cross-sections of atherosclerotic proximal aorta as previously described. The TUNEL positive cells not associated with live macrophages were considered free apoptotic cells and macrophage-associated apoptotic cells were considered phagocytosed as a measure of lesion efferocytosis as previously described.

[2] = tested on: MDA content of proximal aortic atherosclerotic lesions in Ldlr^−/− mice; test: MDA immunofluorescence of proximal aortic atherosclerotic lesions; assay type: in vivo, mouse
Protocol: (§3) Mice: Ldlr^−/− and WT on C57BL/6 background mice were obtained from the Jackson Laboratory. Animal protocols were performed according to the regulations of Vanderbilt University's Institutional Animal Care and Usage Committee. Mice were maintained on chow or a Western-type diet containing 21% milk fat and 0.15% cholesterol (Teklad). Eight week old, female mice were pretreated mice with vehicle alone (Water) or containing either 1 g/L of 4-HOBA or 1 g/L of 2-HOBA. After two weeks, the mice continued to receive treatment and were administered a Western diet for 16 weeks to induce hypercholesterolemia and atherosclerosis.
(§4) Atherosclerosis Analyses and Cross-section Immunofluorescence Staining: The extent of atherosclerosis was examined both in Oil-Red-O-stained cross-sections of the proximal aorta and by en face analysis using the KS300 imaging system (Kontron Elektronik GmbH). For immunofluorescence staining, 5 μm cross-sections of the proximal aorta were fixed in cold acetone (Sigma), blocked in Background Buster (Innovex), incubated with indicated primary antibodies (MDA and CD68) at 4° C. for overnight. After incubation with fluorescent labeled secondary antibodies at 37 C for 1 hour, the nucleus was counter stained with Hoechst. Images were captured with a fluorescence microscope (Olympus IX81) and SlideBook 6 (Intelligent-Image) software and quantitated using ImageJ software (NIH).

[3] = tested on: ApoE−/− macrophage foam cells; test: Capacity of HDL isolated from treated mice to reduce macrophage cholesterol; assay type: cell-based, mouse; settings: HDL 25 μg protein/ml, 24 h
Protocol: as §3
HDL Isolation from Mouse Plasma and Measurement of HDL Capacity to Reduce Macrophage Cholesterol: HDL was isolated from mouse plasma using HDL Purification Kit (Cell BioLabs, Inc.) following the manufacturer's protocol. Briefly, apoB containing lipoproteins and HDL were sequentially precipitated with dextran sulfate. The HDL was then resuspended and washed. After removing the dextran sulfate, the HDL was dialyzed against PBS. To measure the capacity of the HDL to reduce macrophage cholesterol, apoE^−/− macrophages were cholesterol enriched by incubation for 48 h in DMEM containing 100 μg protein/ml of acetylated LDL. […] Cellular cholesterol was measured before and after incubation with HDL using an enzymatic cholesterol assay as described.

[4] = tested on: macrophages; test: In vitro modification of LDL with MDA, then macrophage cholesterol content; assay type: cell-based; settings: 2-HOBA present during LDL (5 mg/mL) modification with MDA (10 mM); versus vehicle; LDL with macrophages 24 h
Protocol: Modification of HDL and LDL with MDA: MDA was prepared immediately before use by rapid acid hydrolysis of maloncarbonyl bis-(dimethylacetal) as described. Briefly, 20 μL of 1 M HCl was added to 200 μL of maloncarbonyl bis-(dimethylacetal), and the mixture was incubated for 45 min at room temperature. The MDA concentration was determined by absorbance at 245 nm, using the coefficient factor 13, 700 M-1 cm-1. HDL (10 mg of protein/mL) and increasing doses of MDA (0, 0.125 mM, 0.25 mM, 0.5 mM, 1 mM) were incubated at 37° C. for 24 h in 50 mM sodium phosphate buffer (pH7.4) containing DTPA 100 μM. Reactions were initiated by adding MDA and stopped by dialysis of samples against PBS at 4° C. LDL (5 mg/mL) was modified in vitro with MDA (10 mM) in the presence of vehicle alone or with 2-HOBA at […] for 24 h in 50 mM sodium phosphate buffer (pH7.4) containing DTPA 100 μM. Reactions were initiated by adding MDA and stopped by dialysis of samples against PBS at 4° C. The LDL samples were incubated for 24 h with macrophages and the cholesterol content of the cells was measured using an enzymatic cholesterol assay as described.

[5] = tested on: atherosclerotic lesions of Ldlr^−/− mice; test: Masson's Trichrome staining of lesions (collagen content, fibrous cap thickness, necrotic core); assay type: in vivo, mouse
Protocol: as §3
Masson's Trichrome Staining: Masson's Trichrome Staining was applied for measurement of atherosclerotic lesion collagen content, fibrous cap thickness and necrotic core size following the manufacture's instruction (Sigma) and as previously described. Briefly, 5 μm cross-sections of proximal atherosclerotic aorta root were fixed with Bouin's solution, stained with hematoxylin for nuclei (black), biebrich scarlet and phosphotungstic/phosphomolybdic acid for cytoplasm (red), and aniline blue for collagen (blue). Images were captured and analyzed for collagen content, atherosclerotic cap thickness and necrosis core by ImageJ software as described earlier.

[6] = background statement; cited from earlier work
[7] = tested on: hypercholesterolemic Ldlr^−/− mice; test: Atherosclerosis analysis (Oil-Red-O proximal aorta cross-sections and en face aorta) in western diet fed mice; assay type: in vivo, mouse; settings: western diet 16 weeks; for reduction of atherosclerosis, en face analysis of the aorta / reduction of the extent of proximal aortic atherosclerosis: 1 g/L in water
Protocol: as §3, §4

[8] = tested on: MDA-LDL adducts; test: Plasma MDA-LDL sandwich ELISA; assay type: in vivo, mouse; settings: western diet 16 weeks
Protocol: as §3
(§5) Measurement of MDA-LDL, MDA-HDL, and MDA-ApoAI: Sandwich ELISA was used to measure plasma MDA-LDL and MDA-HDL levels following the manufacturer's instructions (Cell BioLabs, Inc.). Briefly, isolated LDL or HDL samples and MDA-HDL standards were added onto anti-MDA coated plates, and after blocking, the samples were incubated with biotinylated anti-apoB or anti-ApoAI primary antibody. The samples were then incubated for 1 h with streptavidin-enzyme conjugate and 15 min with substrate solution. After stopping the reaction, the O.D. was measured at 450 nm wavelength. MDA-ApoAI was detected in mouse plasma by immunoprecipitation of ApoAI and western blotting. […] Proteins were visualized and quantitated by Odyssey 3.0 Quantification software (LI-COR).

[9] = background statement; cited from earlier work; remark: listed apart in the source
[10] = background statement; cited from earlier work; remark: listed apart in the source
[11] = tested on: MDA-HDL adducts; test: Plasma MDA-HDL sandwich ELISA; assay type: in vivo, mouse; settings: western diet 16 weeks
Protocol: as §3, §5

[12] = tested on: peritoneal macrophages; test: Macrophage inflammatory response, real time PCR of IL-1β, IL-6, TNF-α mRNA; assay type: cell-based, mouse; settings: oxidized LDL, 24 h
Protocol: as §1
RNA Isolation and Real-Time RT-PCR: Total RNA was extracted and purified using Aurum Total RNA kit (Bio-Rad) according to the manufacturer's protocol. Complementary DNA was synthesized with iScript reverse transcriptase (Bio-Rad). Relative quantitation of the target mRNA was performed using specific primers, SYBR probe (Bio-Rad), and iTaqDNA polymerase (Bio-Rad) on IQ5 thermocylcer (Bio-Rad) and normalized with 18S, as described earlier. 18S, IL-1β and TNF-α primers used were as described earlier.

[13] = tested on: MDA-apoAI adducts; test: Plasma apoAI immunoprecipitation and western blotting for MDA-apoAI and apoAI; assay type: in vivo, mouse; settings: western diet 16 weeks
Protocol: as §3
Measurement of MDA-LDL, MDA-HDL, and MDA-ApoAI: Sandwich ELISA was used to measure plasma MDA-LDL and MDA-HDL levels following the manufacturer's instructions (Cell BioLabs, Inc.). Briefly, isolated LDL or HDL samples and MDA-HDL standards were added onto anti-MDA coated plates, and after blocking, the samples were incubated with biotinylated anti-apoB or anti-ApoAI primary antibody. The samples were then incubated for 1 h with streptavidin-enzyme conjugate and 15 min with substrate solution. After stopping the reaction, the O.D. was measured at 450 nm wavelength. MDA-ApoAI was detected in mouse plasma by immunoprecipitation of ApoAI and western blotting. Briefly, 50 μl of mouse plasma were prepared with 450 μL of IP Lysis Buffer (Pierce) plus 0.5% protease inhibitor mixture (Sigma), and immunoprecipitated with 10 μg of polyclonal antibody against mouse ApoAI (Novus). Then 25 μL of magnetic beads (Invitrogen) was added, and the mixture was incubated for 1 h at 4° C. with rotation. The magnetic beads were then collected, washed three times, and SDS-PAGE sample buffer with β-mercaptoethanol was added to the beads. After incubation at 70° C. for 5 min, magnetic field was applied to the Magnetic Separation Rack (New England), and the supernatant was used for detecting mouse ApoAI or MDA. For Western blotting, 30-60 μg of proteins was resolved by NuPAGE Bis-Tris electrophoresis (Invitrogen), and transferred onto nitrocellulose membranes (Amersham Bioscience). Membranes were probed with primary rabbit antibodies specific for ApoAI (Novus) or MDA (Cell signaling) and fluorescent tagged IRDye 680 (LI-COR) secondary antibody. Proteins were visualized and quantitated by Odyssey 3.0 Quantification software (LI-COR).

[14] = tested on: atherosclerotic lesions of Ldlr^−/− mice; test: Lesion apoptosis (TUNEL) and efferocytosis in proximal aorta sections; assay type: in vivo, mouse
Protocol: as §3, §2

[15] = tested on: primary macrophages; test: H2O2 induced apoptosis, Annexin V staining, macrophages; assay type: cell-based, mouse; settings: 250 μM H2O2, 24 h; compared to vehicle or 4-HOBA
Protocol: as §1, §2

[16] = Body weight and plasma total cholesterol and triglyceride levels of treated mice; assay type: in vivo, mouse; settings: compared to vehicle or 4-HOBA; data not shown
Protocol: as §3

[17] = summary value, compared to vehicle or 4-HOBA
[18] = in contrast to vehicle or 4-HOBA
[19] = compared to Ldlr−/− mice consuming a chow diet

For NCc1ccccc1O [2-HOBA, 2-hydroxybenzylamine], the “number of apoptotic cells in endothelial cell cultures” value [1] was “markedly decreased”, the “reduction of MDA levels in the proximal aorta” value ([2]; compared to 4-HOBA) was 66.8% and the “reduction of MDA levels in the proximal aorta” value ([2]; compared to vehicle alone) was 68.5%. The “efficiency of HDL from treated mice at reducing cholesterol stores in macrophage foam cells, fold” value ([3]; versus 4-HOBA treated mice) was 1.7 fold, the “efficiency of HDL from treated mice at reducing cholesterol stores in macrophage foam cells, fold” value ([3]; versus vehicle treated mice) was 2.2 fold and the “ability of MDA modified LDL to increase cholesterol accumulation in macrophages” value [4] was “reduced”. For the same compound, the “increase of collagen content of the proximal aorta” value ([5]; compared to 4-HOBA) was 2.6 fold, the “increase of collagen content of the proximal aorta” value ([5]; compared to vehicle) was 2.7 fold and the increased collagen content ([5]; summary value) was 2.7 fold. The “increased fibrous cap thickness” value ([5]; summary value) was 2.1 fold, the “reduction in necrotic core” value ([5]; summary value, p<0.01) was 69% and the “decrease of % necrotic area in the proximal aorta” value ([5]; versus 4-HOBA) was 73.5%. The “fibrous cap thickness, fold greater” value ([5]; versus 4-HOBA treated mice) was 2.29 fold, the “decrease of % necrotic area in the proximal aorta” value ([5]; versus vehicle) was 74.8% and the “fibrous cap thickness, fold greater” value ([5]; versus vehicle treated mice) was 2.31 fold. For the same compound, the “reaction with lipid monocarbonyls” value [6] was “not with lipid monocarbonyls”, the “reduction of atherosclerosis, en face analysis of the aorta” value ([7]; compared to 4-HOBA) was 59.1% and the “reduction of the extent of proximal aortic atherosclerosis” value ([7]; compared to 4-HOBA) was 31.5%. For the same compound, the “reduction of atherosclerosis, en face analysis of the aorta” value ([7]; compared to vehicle) was 60.3%, the “reduction of the extent of proximal aortic atherosclerosis” value ([7]; compared to vehicle) was 31.1% and the “decrease of atherosclerosis in en face aortas” value [7, 17] was 60%. For the same compound, the “decrease of atherosclerosis in the proximal aortas” value [7, 17] was 31%, the “reduction of plasma MDA-LDL levels” value ([8]; compared to 4-HOBA) was 54% and the “reduction of plasma MDA-LDL levels” value ([8]; compared to vehicle) was 57%. For the same compound, the “reaction with lipid dicarbonyls (dicarbonyl scavenger)” value [9] was “rapidly reacts”, the oral bioavailability [10] was “orally bioavailable” and the “reduction of plasma MDA-HDL levels” value ([11]; compared to 4-HOBA) was 56%. The “reduction of plasma MDA-HDL levels” value ([11]; compared to vehicle) was 57%, the “IL-1β mRNA level” value [12] was “significantly reduced” and the “IL-6 mRNA level” value [12] was “significantly reduced”. The “TNF-α mRNA level” value [12] was “significantly reduced”, the “plasma MDA-apoAI adducts” value [13, 18] was “dramatically reduced” and the “plasma apoAI levels” value [13, 18] was “increased”. For the same compound, the “number of TUNEL positive cells not associated with macrophages, fold increase (efferocytosis)” value ([14]; 4-HOBA treated mice versus 2-HOBA treated mice) was 2.0 fold, the “reduction of the number of TUNEL positive cells in the proximal aortic lesion” value ([14]; compared to 4-HOBA) was 72.4% and the “reduction of the number of TUNEL positive cells in the proximal aortic lesion” value ([14]; compared to vehicle) was 72.9%. The “reduction of the number of atherosclerotic lesion TUNEL positive cells” value ([14]; summary value, compared to 4-HOBA or vehicle treated mice) was 72%, the “number of TUNEL positive cells not associated with macrophages, fold increase (efferocytosis)” value ([14]; vehicle treated mice versus 2-HOBA treated mice) was 1.9 fold and the “number of apoptotic cells in macrophage cultures” value [15] was “markedly decreased”. For the same compound, the “effect on body weight” value [16] was “did not affect”.

In the case of NCc1ccc(O)cc1 [4-HOBA, 4-hydroxybenzylamine, reference compound], the atheroprotection ([7]; Ldlr−/− mice) is listed as “not atheroprotective”, the “reaction with lipid dicarbonyls (dicarbonyl scavenger)” value [9] is listed as “ineffective” and the oral bioavailability [10] is listed as “orally bioavailable”. For the same compound, the “plasma apoAI levels” value [13, 19] was “reduced” and the “plasma levels of MDA-apoAI” value [13, 19] was “markedly increased”.
